The values below come from patent publication US20230248723A1, “PYRROLO[2,3-B]PYRAZINE COMPOUNDS AS CCCDNA INHIBITORS FOR THE TREATMENT OF HEPATITIS B VIRUS (HBV) INFECTION” (Hoffmann-La Roche Inc., priority 2017, published 2023).

Common to all, as to format: cell-based
For one data set, the system named is HBsAg. In words: HBsAg, multiplex assay, HBV-infected PHH. Particulars: for IC50: Hepatitis B virus, read-out: HBsAg IC50 (μM) Median, PHH, patient-derived HBV (GT D). As for the experimental part: (§1) Fresh primary human hepatocytes (PXB-PHH) harvested from humanized mice (uPA/SCID mice)—herein called PHH—were obtained from PhoenixBio Co., Ltd (Japan). Cells were seeded on a collagen I-coated plate at the following cell density: 35,000 cells/well (384-well), 70,000 cells/well (96-well), or, 400,000 cells/well (24-well) in modified hepatocyte clonal growth medium (dHCGM). dHCGM is a DMEM medium containing 100 U/ml Penicillin, 100 μg/ml Streptomycin, 20 mM Hopes, 44 mM NaHCO3, 15 μg/ml L-proline, 0.25 μg/ml insulin, 50 nM Dexamethazone, 5 ng/ml EGF, 0.1 mM Asc-2P, 2% DMSO and 10% FBS (Ishida et al., 2015). Cells were cultured at 37° C. incubator in a humidified atmosphere with 5% CO2. Culture medium was replaced 24 h post-plating and every 2 days until harvest.
(§2) Following 4 day of maturation with 1 μM MB-1, HLC were incubated with HBV (purified from CHB individuals) at multiplicity of infection (MOI) 10-40 without PEG for 24 hr; virus inoculum was removed the following day. […] Compound treatment in HLC and PHH was started at day 3 post infection. Compound (in powder) was dissolved in DMSO; the final concentration of DMSO added to cells is 1%. Fresh compound was replenished every 2 day until cells were harvested at day 10 (PHH), or day 14 (HLC). Compound effect on HBV and cellular toxicity was measured by multiplex assay (HBsAg, HBeAg, albumin), branched DNA (pgRNA), or digital PCR (cccDNA) and depicted as % of inhibition compared to DMSO control. Graphs were prepared using Spotfire software.
(§3) A custom, Luminex-based multiplex assay that simultaneously measured HBeAg, albumin, and HBsAg was developed by Radix BioSolutions (Georgetown, Tex.). This is a sandwich immunoassay; each capture antibody was coupled with xMAP™ Luminex magnetic beads. The dynamic ranges of analyte detection are as follows: HBeAg (1-316 ng/ml), albumin (3.1-10,000 ng/ml), and HBsAg (0.1-100 ng/ml) with coefficient variant (CV) […]. Samples were read on FlexMAP 3D (Luminex) and analyzed by Genedata software.

The subject of another data set is HBeAg. In words: HBeAg, multiplex assay, HBV-infected PHH. Particulars: for IC50: Hepatitis B virus, read-out: HBeAg IC50 (μM) Median, PHH, patient-derived HBV (GT D). As for the experimental part: as §1, §2, §3
In another data set the test system is cccDNA. In words: cccDNA assay (digital PCR), HBV-infected PHH. To be noted: for IC50: Hepatitis B virus, patient-derived HBV (GT D), read-out: cccDNA IC50 (μM) Median. The protocol: as §1
Following 4 day of maturation with 1 μM MB-1, HLC were incubated with HBV (purified from CHB individuals) at multiplicity of infection (MOI) 10-40 without PEG for 24 hr; virus inoculum was removed the following day. HBV infection in PHH was performed at MOI 40+4% PEG. Compound treatment in HLC and PHH was started at day 3 post infection. Compound (in powder) was dissolved in DMSO; the final concentration of DMSO added to cells is 1%. Fresh compound was replenished every 2 day until cells were harvested at day 10 (PHH), or day 14 (HLC). Compound effect on HBV and cellular toxicity was measured by multiplex assay (HBsAg, HBeAg, albumin), branched DNA (pgRNA), or digital PCR (cccDNA) and depicted as % of inhibition compared to DMSO control. Graphs were prepared using Spotfire software.
HBV-infected cells (in 384- or 96-well plate) were lysed with Cells-to-CT Lysis Reagents according to manufacturer's instruction (Thermo Scientific). To remove excess of RC-DNA, samples were digested with T5 exonuclease (10 U) (New England Biolabs), at 37° C. for 1 hr; enzyme was inactivated by heating the samples at 80° C. for 15 min. DNA samples (1.2 μl) were added into the digital PCR Master Mix (QuantStudio Digital PCR Kit, Thermo Scientific) containing cccDNA primers 5′-[…] (forward), 5′-[…] (reverse), and […] (probe) (Werle-Lapostolle et al., 2004) in a total volume 5 μl, and loaded into dPCR array using AccuFill System (AB). Each sample was loaded into 4 subarrays/256 through-holes. Digital PCR assay was run on QuantStudio 12K Flex (AB) and data was analyzed by Digital Suite Software (AB).

Data set [1] concerns albumin (secreted, cellular toxicity marker). In words: Albumin (in vitro cellular tox marker), multiplex assay, PHH. To be noted: human, primary human hepatocytes (PXB-PHH) infected with HBV, patient-derived HBV (GT D), read-out: In vitro tox albumin IC50 (μM) Median. As for the experimental part:
as §1, §2, §3

A further data set has as its system pgRNA. In words: pgRNA assay (branched DNA), HBV-infected PHH. To be noted: patient-derived HBV (GT D), read-out: pgRNA IC50 (μM) Median. The protocol: as §1, §2
Levels of pgRNA in infected cells (96-well plate) were measured using QuantiGene Singleplex 2.0 assay (Affymetrix), a hybridization-based assay that utilizes the xMAP™ Luminex magnetic beads and branched DNA (bDNA) signal amplification technology. The assay is performed in 96-well plate according to manufacturer's recommendation. Briefly, cells were lysed and lysates were incubated with HBV probe sets panel at 50-55° C. for 30 min then stored at −80° C. Signal amplification is achieved via sequential hybridization of PreAmplifier, Amplifier, and Label Probe. After adding Streptavidin phycoerythrin (SAPE) substrate, the signal is read using a FlexMap 3D (Luminex) instrument.

A further data set deals with HBV DNA. Description: HBV DNA in culture medium of HBV-infected PHH. Particulars: PHH, patient-derived HBV GT D, MOI 40, treatment from day 3, day 10 pi. An excerpt: FIG. 8: Establishment of dPCR assay for cccDNA quantification. […] A 3.2-kb, linearized plasmid HBV is used as a standard curve for relative quantification of HBV DNA by TaqMan-PCR. […] (B) Testing primer & PCR specificity and removal of excess RC-DNA. In contrast to TaqMan-PCR (relative quantification method), digital PCR (dPCR) is an absolute quantification method without the need of standard curve. […] First step—Testing primer and PCR specificity. Serum-derived HBV (contains RC-DNA, devoid of cccDNA) was used as a DNA template for dPCR using 2 sets of primers (for HBV core and cccDNA region) (Werle-Lapostolle et al., 2004). Samples were amplified by dPCR on QuantStudio 12K Flex Real-Time PCR System (AB); 4 subarrays (256 through-holes) were used for each sample. […] Second step—Removal of excess RC-DNA. PHH seeded in 96-well were infected with HBV. At day 6 pi, cell lysates were digested with Plasmid safe, ATP-dependent, DNAse (PSAD), T5 exonuclease, or, T5 exonuclease followed by EcoRI, for 1 hr at 37° C. Samples were amplified by dPCR using cccDNA primers on QuantStudio 12K Flex Real-Time PCR System (AB); 4 subarrays (256 through-holes) were used for each sample. […] Fresh medium and compound was replenished every 2 day. At day 10 pi, culture media were harvested and measured for HBV DNA, HBsAg, and HBeAg. Albumin was used as a surrogate of in vitro tox marker. Cells were lysed and treated with T5 exonuclease, cccDNA was then measured by dPCR on QuantStudio 12K Flex Real-Time PCR System (AB); 4 subarrays (256 through-holes) were used for each sample. […] Cells were treated with compounds at the indicated concentrations starting from day 3 post infection (patient-derived HBV, GT D). Fresh medium and compound was replenished every 2 day. Cells were harvested at day 10 pi; viral markers and albumin were measured from culture medium.
HBV from sera of CHB individuals were purified using OptiPrep™ (Axis-Shield, Norway) density gradient. Briefly, OptiPrep™ stock solution (60%) was diluted to 50% and 10% in PBS; equal volume of each solution was then added into SW41 tubes (BD Biosciences). Linear gradient was performed by placing the tubes on Gradient Master 108™ (Biocomp) at setting: 800, 25 rpm for 30″. Two hundred microliter (200 μl) of serum was overlaid on the top of gradient and samples were centrifuged at 100,000×g for 2 hours at 4° C. […] Fractions containing the peak of HBV DNA were pooled and used as virus inoculum for all infection experiments. All fractions were stored at −80° C. until used.
Fresh primary human hepatocytes (PXB-PHH) harvested from humanized mice (uPA/SCID mice)—herein called PHH—were obtained from PhoenixBio Co., Ltd (Japan).

Setting [2] is: PHH, patient-derived HBV GT D, MOI 40, treatment from day 3, day 10 pi.

The structures appear in SMILES notation. Read-outs that look alike come from different tables or passages of the source. Where only a bound is given, the exact number is not on record here.

In the case of `CC(C)(O)C(C)(C)NC(=O)c1c[nH]c2ncc(C3CC3)nc12` [compound 9], the IC50 (usually the midpoint of a concentration-inhibition curve) in the data set on HBsAg was determined as 0.51 µM; in the data set on HBeAg, 0.68 µM; in the data set on cccDNA it was 49.2 µM. Further, in data set [1], the IC50 at 7 days turned out to be 21.3 µM.

For the molecule `CC[C@@H](CO)NC(=O)c1c[nH]c2ncc(C3CC3)nc12` [compound 4], the half-maximal inhibitory concentration (IC50) with HBsAg is 0.68 µM; in the data set with HBeAg, 0.68 µM; with pgRNA (Hepatitis B virus) it was under 10 µM; in the data set with pgRNA, 6.93 µM; in the data set with cccDNA it was 63.7 µM. Besides, in data set [1], the 50% inhibitory concentration (IC50) at 7 days stood at 48 µM.

Consider `CC(C)(O)C(CCO)NC(=O)c1c[nH]c2ncc(C3CC3)nc12` (stereo not drawn) [compound 3], for which the half-inhibitory concentration (IC50) in the data set on HBsAg is 3.62 µM; in the data set with HBeAg it was 3.58 µM; in the data set on pgRNA (Hepatitis B virus), 12.8 µM; in the data set with cccDNA it was 43.7 µM. Moreover, in data set [1], the IC50 at 7 days was 33.4 µM.

As to `CC(C)(CO)NC(=O)c1c[nH]c2ncc(C3CC3)nc12` [compound 1], the concentration for half-maximal inhibition (IC50) with HBsAg stood at 0.17 µM; with HBeAg it was 0.17 µM; in the data set on pgRNA (Hepatitis B virus) it was 14.2 µM; in the data set with cccDNA, 52.7 µM. Also, the 50% inhibitory concentration (IC50) at 7 days in data set [1] was determined as 18.7 µM.

In the case of `C=C1[C@H](CO)[C@@H](O)C[C@@H]1n1cnc2c(=O)[nH]c(N)nc21` [entecavir, reference compound], the “effect on HBsAg (other viral markers)” value in the data set on HBsAg (setting [2]) is “no effect”. Besides, the “effect on HBeAg (other viral markers)” value in the data set with HBeAg (setting [2]) is listed as “no effect”. Further, the “effect on HBV DNA” value in the data set with HBV DNA is reported as “highly potent”. The “effect on cccDNA (other viral markers)” value with cccDNA (patient-derived HBV GT D, MOI 40, treatment from day 3, day 10 pi, dPCR) is “no effect”.

`C[C@@H](CO)NC(=O)c1c[nH]c2ncc(C3CC3)nc12` [compound 8]: the IC50 in the data set with HBsAg came out at 1.22 µM; in the data set on HBeAg, 2.29 µM; with cccDNA, 30.8 µM. For the same molecule, the IC50 at 7 days in data set [1] was determined as 31.9 µM.

Regarding `C[C@H](CO)NC(=O)c1c[nH]c2ncc(C3CC3)nc12` [compound 5], the half-inhibitory concentration (IC50) is 5.61 µM with HBsAg, 2.95 µM in the data set on HBeAg, at least 100 µM with pgRNA (Hepatitis B virus) and 160 µM with cccDNA. Moreover, the IC50 at 7 days in data set [1] came to 135 µM.

On to `O=C(NC1(CO)CCCC1)c1c[nH]c2ncc(C3CC3)nc12` [compound 2], for which the IC50 is 0.68 µM in the data set on HBsAg, 0.68 µM with HBeAg and 30.1 µM in the data set with cccDNA. Also, the half-inhibitory concentration (IC50) at 7 days in data set [1] was 24.2 µM.

Regarding `O=C(NC1(CO)CCOCC1)c1c[nH]c2ncc(C3CC3)nc12` [compound 6], the IC50 in the data set with HBsAg is 0.75 µM; in the data set with HBeAg, 0.49 µM; in the data set on pgRNA (Hepatitis B virus), 15.7 µM; with cccDNA, at least 166 µM. Moreover, in data set [1], the 50% inhibitory concentration (IC50) at 7 days was at least 166 µM.
